Test [1] is described as follows: Binding affinity for dopamine D3 receptor.
Test [2] deals with T1, D(4) dopamine receptor (Homo sapiens, UniProt P21917).
T1 sequence (P21917 whole entry): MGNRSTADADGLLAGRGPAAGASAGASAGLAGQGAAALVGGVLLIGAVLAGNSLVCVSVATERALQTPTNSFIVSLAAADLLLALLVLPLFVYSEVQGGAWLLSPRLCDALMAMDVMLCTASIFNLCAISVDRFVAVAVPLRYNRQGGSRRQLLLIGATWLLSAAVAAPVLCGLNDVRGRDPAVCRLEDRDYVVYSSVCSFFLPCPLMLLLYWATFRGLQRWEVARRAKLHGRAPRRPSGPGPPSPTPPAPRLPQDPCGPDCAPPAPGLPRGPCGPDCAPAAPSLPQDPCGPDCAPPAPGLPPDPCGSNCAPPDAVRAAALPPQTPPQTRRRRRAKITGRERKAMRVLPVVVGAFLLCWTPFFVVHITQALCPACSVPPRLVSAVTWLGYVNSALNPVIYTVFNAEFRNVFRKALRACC
Briefly: Binding affinity for dopamine D4 receptor.

The nature of test [3]: Binding affinity for dopamine D2 receptor to that of dopamine D4 receptor.
For test [4], the target named is D(2) dopamine receptor (Homo sapiens, UniProt P14416).
Sequence of D(2) dopamine receptor (P14416 whole entry): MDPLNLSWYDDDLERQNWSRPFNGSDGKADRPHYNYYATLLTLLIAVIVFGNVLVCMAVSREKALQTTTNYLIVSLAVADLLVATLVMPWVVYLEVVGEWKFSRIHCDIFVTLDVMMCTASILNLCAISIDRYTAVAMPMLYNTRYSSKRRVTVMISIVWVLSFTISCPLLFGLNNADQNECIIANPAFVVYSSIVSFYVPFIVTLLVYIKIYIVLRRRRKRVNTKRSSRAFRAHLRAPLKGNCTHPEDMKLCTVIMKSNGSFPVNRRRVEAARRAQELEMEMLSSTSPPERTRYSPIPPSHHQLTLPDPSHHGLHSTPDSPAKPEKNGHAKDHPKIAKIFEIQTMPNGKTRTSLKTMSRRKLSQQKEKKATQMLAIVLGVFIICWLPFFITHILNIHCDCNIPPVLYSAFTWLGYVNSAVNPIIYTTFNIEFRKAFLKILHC

A word on the Ki: it is a dissociation constant, usually derived from enzyme kinetics or from competition with a known ligand. `O=C(CCCN1CCC(c2ccc(Cl)cc2)CC1)c1ccc(F)cc1` returned a Ki in test [1] of 0.046 µM.
Consider `O=C(CCCN1C2CCC1CC(O)(c1ccccc1)C2)c1ccc(F)cc1` (stereo not drawn), for which the Ki in test [1] was determined as 0.0032 µM; in test [2], 0.0191 µM.
For `O=C(CCCN1C2CCC1CC(O)(c1ccc(Cl)cc1)C2)c1ccc(F)cc1` (stereo not drawn), in test [3], the Ratio turned out to be 0.03.
Regarding `O=C(CCCN1C2CCC1CC(c1ccccc1)C2)c1ccc(F)cc1` (stereo not drawn), the Ratio in test [3] was 0.7. Also, the Ki in test [1] is 0.0514 µM; in test [2] it was 0.177 µM.
In the case of `O=C(CCCN1C2CCC1CC(c1ccc(Cl)cc1)C2)c1ccc(F)cc1` (stereo not drawn), the Ratio in test [3] turned out to be 0.6. For the same compound, the Ki in test [1] stood at 0.222 µM; in test [2], 0.345 µM; in test [4], 0.19 µM.
As to `O=C(CCCN1CCN(c2ccc(Cl)cc2)CC1)c1ccc(F)cc1`, in test [2], the Ki turned out to be 0.0175 µM.
In test [1], `O=C(CN1C2CCC1CC(O)(c1ccc(Cl)cc1)C2)c1ccc(F)cc1` (stereo not drawn) returned a Ki of more than 10 µM.
